From patent US10870638B2, “Pyridazinone compound or its salt, and herbicide containing it” (ISHIHARA SANGYO KAISHA, LTD., priority 2016, dated 2020)

Columns and labels:
Experiment in all cases: Test Example 1: foliar treatment, growth inhibition rate on 14th day
Format in all cases: in vivo
Settings in all cases: active ingredient amount 31 g/ha, 14th day after application
[1] = system: wild oat (Avena fatua L.)
Procedure, shortened: (§1)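 Plants in upland soil were sprayed on the foliage at early leaf stages (wild oat 0.4–1.2, rice 0.2–2.7, green foxtail 0.5–3.2, soybean primary leaf) with wettable powder or emulsifiable concentrate formulations. Spray volume was 1,000 L/ha water containing 0.1 vol% spreader, at prescribed active-ingredient rates. Growth inhibition (0 = untreated, 100 = complete kill) was scored visually on day 14.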

[2] = system: barnyardgrass (Echinochloa crus-qalli L.)
Procedure, shortened: (§2)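 Visual 0–100% inhibition scoring (100 = complete kill) at 14 days after foliar treatment of soil-grown seedlings at species-specific leaf stages, with the compound sprayed as a wettable powder or emulsifiable concentrate dilution.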

[3] = system: crabgrass (Digitaria sanquinalis L.)
Procedure, shortened: as §2

[4] = system: wheat (Triticum aestivum L.)
Procedure, shortened: as §2

[5] = system: rice (Oryza sativa L.)
Procedure, shortened: as §1

[6] = system: corn (Zea mays L.)
Procedure, shortened: as §2

[7] = system: soybean (Glycine max Merr.)
Procedure, shortened: as §1

[8] = system: redroot pigweed (Amaranthus retroflexus L.)
Procedure, shortened: as §2

[9] = system: italian ryegrass (Lolium multiflorum Lam.)
Procedure, shortened: as §2

[10] = system: green foxtail (Setaria viridis L.)
Procedure, shortened: as §1

[11] = visual, 0 = non-treated, 100 = complete kill

Compound	Growth inhibition rate (%) Wild oat [1, 11] [%]	Growth inhibition rate (%) Barnyardgrass [2, 11] [%]	Growth inhibition rate (%) Crabgrass [3, 11] [%]	Growth inhibition rate (%) Wheat [4, 11] [%]	Growth inhibition rate (%) Rice [5, 11] [%]	Growth inhibition rate (%) Corn [6, 11] [%]	Growth inhibition rate (%) Soybean [7, 11] [%]	Growth inhibition rate (%) Redroot pigweed [8, 11] [%]	Growth inhibition rate (%) Italian ryegrass [9, 11] [%]	Growth inhibition rate (%) Green foxtail [10, 11] [%]	Growth inhibition rate (%) Wild oat [1] [%]	Growth inhibition rate (%) Barnyardgrass [2] [%]	Growth inhibition rate (%) Crabgrass [3] [%]	Growth inhibition rate (%) Wheat [4] [%]	Growth inhibition rate (%) Rice [5] [%]	Growth inhibition rate (%) Corn [6] [%]	Growth inhibition rate (%) Soybean [7] [%]	Growth inhibition rate (%) Redroot pigweed [8] [%]	Growth inhibition rate (%) Italian ryegrass [9] [%]	Growth inhibition rate (%) Green foxtail [10] [%]
Cc1ccc(Oc2cnc3cc(Cl)ccc3n2)cc1-c1c(OC(=O)CC(C)(C)C)c(C)nn(C)c1=O [Compound 3-53]	60	100	93	0	40	0	0	0	65	95	–	–	–	–	–	–	–	–	–	–
Cc1ccc(Oc2cnc3cc(Cl)ccc3n2)cc1-c1c(OCOCCCl)c(C)nn(C)c1=O [Compound 3-81]	95	99	93	25	0	0	0	0	95	99	–	–	–	–	–	–	–	–	–	–
CC(=O)Oc1c(C)nn(C)c(=O)c1-c1cc(Oc2ccc(C(F)(F)F)cc2)ccc1C [Compound 2-118]	–	–	–	–	–	–	–	–	–	–	88	85	40	50	80	20	10	0	70	60
CC(=O)Cn1ncc(O)c(-c2cc(Oc3ncc(C(F)(F)F)cc3Cl)ccc2C)c1=O [1-169]	–	–	–	–	–	–	–	–	–	–	90	90	95	0	10	98	0	20	90	99
CCS(=O)(=O)Oc1c(C)nn(C)c(=O)c1-c1cc(Oc2cnc3cc(Cl)ccc3n2)ccc1C [Compound 3-68]	90	100	95	30	0	20	0	0	83	100	–	–	–	–	–	–	–	–	–	–
Cc1ccc(Oc2cnc3cc(Cl)ccc3n2)cc1-c1c(OC(=S)N(C)C)c(C)nn(C)c1=O [Compound 3-67]	100	100	95	99	40	50	0	0	99	100	–	–	–	–	–	–	–	–	–	–
CC(=O)Oc1c(C)nn(C)c(=O)c1-c1cc(Oc2nc3cc(Cl)ccc3o2)ccc1C [Compound 2-139]	–	–	–	–	–	–	–	–	–	–	98	90	98	95	98	65	10	0	98	90
CCc1nn(C)c(=O)c(-c2cc(Oc3ncc(C(F)(F)F)cc3Cl)ccc2C)c1OC(C)=O [1-137]	–	–	–	–	–	–	–	–	–	–	93	100	75	85	85	95	15	0	93	80
CC(=O)Oc1c(C)nn(C)c(=O)c1-c1cc(Oc2ncc(Cl)cn2)ccc1C [Compound 2-124]	–	–	–	–	–	–	–	–	–	–	0	85	80	0	0	0	0	30	0	80
Cc1ccc(Oc2cnc3cc(Cl)ccc3n2)cc1-c1c(OCc2ccccc2)c(C)nn(C)c1=O [Compound 3-41]	–	–	–	–	–	–	–	–	–	–	98	100	95	99	10	20	0	20	99	99
Cc1ccc(Oc2nc3ccc(Cl)cc3o2)cc1-c1c(O)cnn(CC(F)F)c1=O [Compound 2-179]	–	–	–	–	–	–	–	–	–	–	0	88	98	10	0	75	0	0	0	100
Cc1ccc(Oc2cnc3cc(Cl)ccc3n2)cc1-c1c(OC(=O)C2CC2)c(C)nn(C)c1=O [Compound 3-37]	–	–	–	–	–	–	–	–	–	–	98	100	99	99	95	45	30	10	99	100
Cc1ccc(Oc2nc3cc(Cl)ccc3o2)cc1-c1c(O)c(C)nn(C)c1=O [Compound 2-105]	–	–	–	–	–	–	–	–	–	–	75	90	95	25	35	65	25	0	80	90
CC(=O)Oc1c(C)nn(C)c(=O)c1-c1cc(Oc2ncc(C#N)cc2Cl)ccc1C [Compound 2-60]	–	–	–	–	–	–	–	–	–	–	50	88	85	0	50	50	0	0	40	75
CC(=O)Oc1c(C)nn(C)c(=O)c1-c1cc(Oc2nc3ccc(C)cc3s2)ccc1C [Compound 2-152]	–	–	–	–	–	–	–	–	–	–	0	85	20	75	78	0	0	0	35	85
COc1ccc2nc(Oc3ccc(C)c(-c4c(OC(C)=O)c(C)nn(C)c4=O)c3)sc2c1 [Compound 2-154]	–	–	–	–	–	–	–	–	–	–	0	80	10	0	0	0	10	0	10	60
COC(=O)CCC(=O)Oc1c(C)nn(C)c(=O)c1-c1cc(Oc2cnc3cc(Cl)ccc3n2)ccc1C [Compound 3-46]	100	100	99	98	98	50	35	20	100	100	–	–	–	–	–	–	–	–	–	–
